Laboratory results taken from article PMC2914574 (Journal of neurochemistry, 2010).
Like-named read-outs stand apart in the source and are kept apart here. Marks after values point to notes of the source that are not given here.

Experiments:
WT hDAT [1] = molecular target: T1, WT hDAT (Homo sapiens, UniProt Q01959); experiment: inhibition of [3H]DA uptake in intact HEK-hDAT cells; assay type: cell-based; conditions: for Uptake Kapp, WT: inhibition of [3H]DA uptake, intact HEK-hDAT cells, 5 min; for Kapp / Ki ratio: uptake Kapp over binding Ki at WT hDAT
T1 sequence (Q01959 whole entry): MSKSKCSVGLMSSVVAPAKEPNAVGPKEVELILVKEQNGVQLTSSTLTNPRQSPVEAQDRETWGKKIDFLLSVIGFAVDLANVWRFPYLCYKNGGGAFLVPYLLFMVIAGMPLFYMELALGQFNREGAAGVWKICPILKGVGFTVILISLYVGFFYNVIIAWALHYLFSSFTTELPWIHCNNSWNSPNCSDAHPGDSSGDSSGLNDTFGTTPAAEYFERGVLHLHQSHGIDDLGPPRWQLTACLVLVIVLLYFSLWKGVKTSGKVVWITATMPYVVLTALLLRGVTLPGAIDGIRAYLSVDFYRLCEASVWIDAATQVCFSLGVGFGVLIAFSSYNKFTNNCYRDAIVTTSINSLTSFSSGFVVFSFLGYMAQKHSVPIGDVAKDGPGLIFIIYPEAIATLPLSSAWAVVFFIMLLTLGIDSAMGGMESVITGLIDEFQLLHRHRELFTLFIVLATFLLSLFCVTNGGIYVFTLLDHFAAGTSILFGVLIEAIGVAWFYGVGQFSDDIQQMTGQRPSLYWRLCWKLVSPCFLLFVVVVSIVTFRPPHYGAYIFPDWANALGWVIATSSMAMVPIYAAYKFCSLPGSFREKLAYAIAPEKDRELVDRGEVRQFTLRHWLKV

wild-type hDAT = wild-type hDAT (Homo sapiens, UniProt Q01959); experiment: displacement of intact-cell [3H]CFT binding, wild-type hDAT; conditions: for fold increase in binding affinity over monovalent DA: relative to dopamine; for Ki: inhibition of [3H]CFT binding, intact HEK-hDAT cells, 21°C, 15 min
Chain of wild-type hDAT (Q01959 whole entry): as above

hDAT W84L mutant = molecular target: T2, hDAT W84L mutant (Homo sapiens, UniProt Q01959, W84L); experiment: displacement of intact-cell [3H]CFT binding, W84L mutant hDAT
T2 sequence (Q01959 1-620 W84L): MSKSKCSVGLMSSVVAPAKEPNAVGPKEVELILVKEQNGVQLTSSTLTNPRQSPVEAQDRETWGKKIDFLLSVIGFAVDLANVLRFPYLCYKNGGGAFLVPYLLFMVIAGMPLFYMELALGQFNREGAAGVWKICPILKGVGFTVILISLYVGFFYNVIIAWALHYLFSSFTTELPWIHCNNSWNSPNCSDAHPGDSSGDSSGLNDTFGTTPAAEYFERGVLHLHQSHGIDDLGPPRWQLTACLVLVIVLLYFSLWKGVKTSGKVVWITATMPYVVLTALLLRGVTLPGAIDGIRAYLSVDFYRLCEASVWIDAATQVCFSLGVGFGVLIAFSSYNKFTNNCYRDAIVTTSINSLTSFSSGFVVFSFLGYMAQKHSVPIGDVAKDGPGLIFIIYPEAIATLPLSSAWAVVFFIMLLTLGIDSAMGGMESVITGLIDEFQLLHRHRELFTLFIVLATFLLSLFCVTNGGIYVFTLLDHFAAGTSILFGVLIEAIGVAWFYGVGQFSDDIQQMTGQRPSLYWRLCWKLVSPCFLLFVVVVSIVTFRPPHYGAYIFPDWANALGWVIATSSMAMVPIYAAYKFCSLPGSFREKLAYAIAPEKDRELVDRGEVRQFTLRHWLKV

hDAT D313N mutant = hDAT D313N mutant (Homo sapiens, UniProt Q01959, D313N); experiment: displacement of intact-cell [3H]CFT binding, D313N mutant hDAT
Chain of hDAT D313N mutant (Q01959 whole entry D313N): as the sequence (Q01959 whole entry) above, with D313N counted along it

WT hDAT [2] = molecular target: T1, WT hDAT; conditions: inhibition of [3H]DA uptake; ref Chen et al. (2004); cited from earlier work

Molecule | Uptake Kapp, WT (WT hDAT [1]) [nM] | fold increase in binding affinity over monovalent DA (wild-type hDAT; [3H]CFT binding, WT hDAT) [fold] | Ki (wild-type hDAT; read-out: hDAT Binding Ki, WT) [nM] | other results
Oc1ccc(CCNCCCCCCNCCc2ccc(O)c(O)c2)cc1O [Compound D-361] | 134.9 ± 17.5 | 61 | 69.7 ± 9.54 | –
Oc1ccc(CCNCCCCCNCCc2ccc(O)c(O)c2)cc1O [Compound D-347] | 171.5 ± 1.60 | 51 | 83.3 ± 8.74 | –
CC(CCc1ccc(O)c(O)c1)NCCc1ccc(O)c(O)c1 [Compound D-278, hydroxydobutamine] | 187.5 ± 30.2 | 74 | 58 ± 2.9 | fold increase in affinity compared to dobutamine (wild-type hDAT; [3H]CFT binding, WT hDAT): 4 fold; Ki (wild-type hDAT; read-out: hDAT Binding Ki, WT, listed as hydroxydobutamine): ~58 nM
CCCCCCNCCc1ccc(O)c(O)c1 [Compound D-363, N-hexyldopamine] | 3075 ± 223 | 2.5 | 1740 ± 191 | fold loss of activity as inhibitor of [3H]DA uptake relative to dopamine (WT hDAT [1]; WT hDAT): > 7 fold; Kapp / Ki ratio (WT hDAT [1]): 1.8–2.5; fold weaker binding than the bivalent D-361 (wild-type hDAT; [3H]CFT binding, WT hDAT): 25 fold
CC(NC(C)(C)C)C(=O)c1cccc(Cl)c1 (stereo not shown) [bupropion, reference compound] | 576.5 ± 29.1 | – | – | –
CN[C@@H](C)Cc1ccccc1 [(d)-methamphetamine, reference compound] | 141.7 ± 18.8 | – | 341 ± 42.7 | –
CC(Cc1ccccc1)NCCCCCCNCCc1ccccc1 [Compound D-370] | 204.7 ± 9.75 | – | 97.8 ± 10 | –
Oc1ccc(CCNCCCCCCNCCc2ccccc2)cc1O [dopexamine, reference compound] | 187.5 ± 19.2 | – | – | Ki (hDAT W84L mutant): 147 ± 5.09 nM; Ki (wild-type hDAT; hDAT Binding Ki, WT): 96.9 ± 13.7 nM; Ki (hDAT D313N mutant): 192 ± 20.6 nM
CC(Cc1ccccc1)NCCCCCCNCCc1ccc(O)c(O)c1 [Compound D-371] | 244.5 ± 21.5 | 42 | 101 ± 13.4 | fold increase in binding affinity compared to (d)-amphetamine (wild-type hDAT; [3H]CFT binding, WT hDAT): 6 fold
CN1[C@@H]2CC[C@H]1C[C@@H](OC(c1ccccc1)c1ccccc1)C2 [benztropine, reference compound] | 375.5 ± 6.35 | – | – | –
NCCc1ccccc1 [β-phenethylamine, reference compound] | 1103 ± 206 | – | 3261 ± 21.5 | –
C[C@H](N)Cc1ccccc1 [(d)-amphetamine, reference compound] | 163.5 ± 4.57 | – | – | –
COC(=O)[C@H]1[C@@H](c2ccc(F)cc2)C[C@@H]2CC[C@H]1N2C [β-CFT, 2β-carbomethoxy-3β-(4-fluorophenyl)-tropane] | – | – | – | Uptake Kapp, WT (WT hDAT [2]): 30.0 ± 4.0 ^b nM
hydroxydopentamine [Compound D-310] | 155.3 ± 18.6 | – | 91.4 ± 12.5 | –
CC(Cc1ccccc1)NCCCNCCc1ccc(O)c(O)c1 [Compound D-309] | 740.8 ± 30.1 | 13 | 322 ± 15.3 | –
CC(Cc1ccccc1)NCCc1ccc(O)c(O)c1 [Compound D-279, dopamphetamine] | 605.3 ± 46.7 | – | 342 ± 5.38 | fold increase in binding affinity compared to (d)-amphetamine (wild-type hDAT; [3H]CFT binding, WT hDAT): 2 fold
CC(CCc1ccc(O)cc1)NCCc1ccc(O)c(O)c1 (stereo not drawn) [(dl)-dobutamine, dobutamine, reference compound] | 329.4 ± 16.5 | 21 | – | Ki (hDAT W84L mutant): 237 ± 23.9 nM; Ki (wild-type hDAT; hDAT Binding Ki, WT): 196 ± 14.3 nM; Ki (hDAT D313N mutant): 257 ± 26.5 nM
COC(=O)[C@H]1[C@@H](OC(=O)c2ccccc2)C[C@@H]2CC[C@H]1N2C [cocaine] | – | – | – | Uptake Kapp, WT (WT hDAT [2]): 246.0 ± 25.0 ^b nM
Oc1ccc(CCNCCCCCCCCNCCc2ccc(O)c(O)c2)cc1O [Compound D-362] | 105.7 ± 2.98 | 82 | 51.9 | –
CCCNC(C)Cc1ccccc1 (stereo not drawn) [(dl)-propylamphetamine, N-propylamphetamine, reference compound] | 2497 ± 138 | – | 988 ± 67.6 | Kapp / Ki ratio (WT hDAT [1]): 1.8–2.5
Oc1ccc(CCNCCCNCCc2ccc(O)c(O)c2)cc1O [Compound D-307] | 1691 ± 197 | 5 | 875 ± 71.4 | –
